Experimental data published in patent publication US9096624B2 (OSI Pharmaceuticals, LLC, priority 2009, dated 2015).

target: FAK (Homo sapiens, UniProt Q05397); test: biochemical
Sequence (Q05397 whole entry): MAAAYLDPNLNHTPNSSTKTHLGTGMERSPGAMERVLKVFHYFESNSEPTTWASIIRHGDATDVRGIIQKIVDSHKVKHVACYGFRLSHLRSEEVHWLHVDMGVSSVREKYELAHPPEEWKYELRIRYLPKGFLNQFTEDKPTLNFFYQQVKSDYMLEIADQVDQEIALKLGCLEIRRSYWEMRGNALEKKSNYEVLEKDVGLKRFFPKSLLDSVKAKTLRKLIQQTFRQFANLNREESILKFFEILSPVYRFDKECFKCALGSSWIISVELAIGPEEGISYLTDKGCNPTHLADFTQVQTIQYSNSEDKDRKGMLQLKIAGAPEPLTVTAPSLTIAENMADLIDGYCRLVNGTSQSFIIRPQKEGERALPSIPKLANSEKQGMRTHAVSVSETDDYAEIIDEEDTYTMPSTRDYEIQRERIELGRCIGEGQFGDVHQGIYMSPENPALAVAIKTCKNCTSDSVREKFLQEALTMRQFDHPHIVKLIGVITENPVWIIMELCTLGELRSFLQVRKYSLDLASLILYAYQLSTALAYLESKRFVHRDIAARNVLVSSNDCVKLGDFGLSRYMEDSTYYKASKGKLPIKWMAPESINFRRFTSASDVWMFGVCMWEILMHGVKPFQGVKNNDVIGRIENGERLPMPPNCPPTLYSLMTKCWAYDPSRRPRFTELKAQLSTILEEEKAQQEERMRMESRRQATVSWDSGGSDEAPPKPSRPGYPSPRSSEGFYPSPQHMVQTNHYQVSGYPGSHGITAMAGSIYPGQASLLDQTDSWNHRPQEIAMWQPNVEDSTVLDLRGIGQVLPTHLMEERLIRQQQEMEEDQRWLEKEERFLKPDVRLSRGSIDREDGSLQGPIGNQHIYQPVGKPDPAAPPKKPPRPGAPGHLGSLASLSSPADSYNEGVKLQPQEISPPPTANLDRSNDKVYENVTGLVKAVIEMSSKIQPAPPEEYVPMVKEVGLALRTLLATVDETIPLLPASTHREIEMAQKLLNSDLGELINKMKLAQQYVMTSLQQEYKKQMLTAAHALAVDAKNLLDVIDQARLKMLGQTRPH

SMILES	IC50 [nM]
CCOP(=O)(Cc1ccc(Nc2ncc(C(F)(F)F)c(Nc3ccccc3C(=O)N3CCCC3)n2)c(OC)c1)OCC [Example 178, Diethyl (3-methoxy-4-{[4-{[2-(pyrrolidin-1-ylcarbonyl)phenyl]amino}-5-(trifluoromethyl)pyrimidin-2-yl]amino}benzyl)phosphonate]	< 1000
CCOP(=O)(Cc1ccc(Nc2ncc(C(F)(F)F)c(Nc3ccccc3C(=O)NC)n2)c(Br)c1)OCC [Example 108, Diethyl (3-bromo-4-{[4-{[2-(methylcarbamoyl)phenyl]amino}-5-(trifluoromethyl)pyrimidin-2-yl]amino}benzyl) phosphonate]	< 1000
CCOP(=O)(Cc1ccc(Nc2ncc(C(F)(F)F)c(Nc3ccc(OC)c4c3C(=O)N(C)C4)n2)cc1)OCC [Example 205, Diethyl [4-({4-[(7-methoxy-2-methyl-3-oxo-2,3-dihydro-1H-isoindol-4-yl)amino]-5-(trifluoromethyl)pyrimidin-2-yl}amino)benzyl]phosphonate]	< 1000
CCOP(=O)(Cc1ccc(Nc2ncc(C(F)(F)F)c(Nc3ccccc3C(=O)N(C)C)n2)c(OC)c1)OCC [Example 112, Diethyl (4-{[4-{[2-(dimethylcarbamoyl)phenyl]amino}-5-(trifluoromethyl)pyrimidin-2-yl]amino}-3-methoxybenzyl)phosphonate]	< 1000
CCOP(=O)(Cc1ccc(Nc2ncc(C(F)(F)F)c(Nc3ccc(N4CCOCC4)c4c3C(=O)N(C)C4)n2)c(OC)c1)OCC [Example 215, Diethyl (3-methoxy-4-{[4-{[2-methyl-7-(morpholin-4-yl)-3-oxo-2,3-dihydro-1H-isoindol-4-yl]amino}-5-(trifluoromethyl)pyrimidin-2-yl]amino}benzyl)phosphonate]	< 1000
CCOP(=O)(O)Cc1ccc(Nc2ncc(C(F)(F)F)c(Nc3ccc(N4CCN(C)CC4)c4c3C(=O)N(C)C4)n2)c(OC)c1 [Example 254, Ethyl hydrogen (3-methoxy-4-{[4-{[2-methyl-7-(4-methylpiperazin-1-yl)-3-oxo-2,3-dihydro-1H-isoindol-4-yl]amino}-5-(trifluoromethyl)pyrimidin-2-yl]amino}benzyl)phosphonate]	< 1000
CCOC(c1ccc(Nc2ncc(C(F)(F)F)c(Nc3ccccc3C(=O)NC)n2)cc1)P(=O)(OCC)OCC (centres unmarked) [Example 159, Diethyl [ethoxy(4-{[4-{[2-(methylcarbamoyl)phenyl]amino}-5-(trifluoromethyl)pyrimidin-2-yl]amino}phenyl)methyl]phosphonate]	< 1000
CCOP(=O)(Cc1ccc(Nc2ncc(C(F)(F)F)c(Nc3ccccc3C(=O)N3CCN(C)CC3)n2)cc1)OCC [Example 177, Diethyl (4-{[4-({2-[(4-methylpiperazin-1-yl)carbonyl]phenyl}amino)-5-(trifluoromethyl)pyrimidin-2-yl]amino}benzyl)phosphonate]	< 1000
CCOP(=O)(Cc1ccc(Nc2ncc(C(F)(F)F)c(Nc3ccc(-c4cnn(CCO)c4)cc3C(=O)NC)n2)cc1)OCC [Example 145, Diethyl (4-{[4-({4-[1-(2-hydroxyethyl)-1H-pyrazol-4-yl]-2-(methylcarbamoyl)phenyl}amino)-5-(trifluoromethyl)pyrimidin-2-yl]amino}benzyl)phosphonate]	< 1000
CCOP(=O)(Cc1ccc(Nc2ncc(C(F)(F)F)c(Nc3ccc(-c4cnn(CC(C)(C)O)c4)cc3C(=O)NC)n2)cc1)OCC [Example 127]	< 1000
CCOP(=O)(Cc1ccc(Nc2ncc(C(F)(F)F)c(Nc3ccc([C@H]4CC[C@H](O)CC4)cc3C(=O)N(C)C)n2)cc1)OCC [Example 173, Diethyl (4-{[4-{[2-(dimethylcarbamoyl)-4-(trans-4-hydroxycyclohexyl)phenyl]amino}-5-(trifluoromethyl)pyrimidin-2-yl]amino}benzyl)phosphonate]	< 1000
